Source: US4588718A, “Carboxy containing ester prodrugs of corticosteroids” (The Upjohn Company, priority 1984, dated 1986)

Experiments:
[1] = Bioconversion to the parent steroid in vivo (blood levels of test compound and parent steroid); settings: four female monkeys, dose equivalent to 7.5 mg/kg, injection, blood samples 0 to 8 hours; compared with methylprednisolone hemisuccinate
Procedure: Since the compounds of Formula I are prodrugs of the parent corticosteroids, their efficacy depends on bioconversion to liberate the free corticoid in vivo. […] Four female monkeys having synchronized menstrual cycles were given on separate days three days apart doses of the compound of Examples 1 and 2 and methylprednisolone hemisuccinate equivalent to 7.5 mg/kg. Prior to dosing the monkeys were fasted overnight and each was anesthetized during dosing. A few mls of 0.01μ ion strength pH 5 sodium acetate buffer was added to the test compound and 1N sodium hydroxide was added slowly with rapid stirring until all the solids went into solution just prior to injection. Blood samples were withdrawn at times 0, 1/12, 1/4, 1, 2, 4 and 8 hours from administration of test compound and levels of test compound and parent steroid were measured.

[2] = assay type: physicochemical; settings: for t 90% (time for 10% hydrolysis): 25° C., dilute aqueous solution, at the pH of optimum stability (Example 1: pH 4.7; Example 2: pH 4.6)
Procedure: The most important reaction affecting shelf-life is hydrolysis of the ester or carbonate linkage. From the hydrolysis rate constants determined at 25° C. at various pH values for dilute aqueous solutions of the compounds of this invention, estimates of ^t 90% (time for 10% hydrolysis) may be calculated. Such values, calculated at the pH of optimum stability, for the compounds of Examples 1 and 2 are listed in Table I. The actual shelf-life of formulations of the above compounds would be expected to differ from the above estimates for several reasons. (1) The solubility of the parent corticosteroid formed on hydrolysis may be exceeded prior to 10% degradation of the ester. Micelle formation by the intact prodrugs results in solubilization of free corticosteroid thereby prolonging shelf-life. The degree of solubilization varies with the ester concentration, nature of the pro-moiety, and the structure of the corticosteroid. (2) Other degradation reactions besides hydrolysis may be expected to occur. These should in general be diminished due to micelle formation and can in some cases be controlled by the addition of chelating agents, antioxidants, etc. (3) Micelle formation in concentrated solutions also results in stabilization of the ester linkage toward base catalyzed hydrolysis. For example, the base catalyzed hydrolysis rate constant in a 0.267M solution of the compound of Example 1 is less than 20% the rate constant in a 5×10^-4 M solution.

physchem = assay type: physicochemical; settings: water, pH 4.8, water
Source text: The compounds of this invention tend to be free flowing non-hygroscopic crystalline solids when in the acid form. While the aqueous solubility of these prodrugs is limited at very low pH values, these compounds become very soluble at pH values around 5 or higher. In this pH range the prodrugs self-associate to form micellar solutions.

Structure (SMILES)	conversion to the parent steroid (methylprednisolone) in vivo [1]	pH of optimum stability [2]	t 90% (time for 10% hydrolysis) [2] [years]	base catalyzed hydrolysis rate constant in a 0.267M solution relative to the rate constant in a 5×10^-4 M solution ([2]; 0.267M vs 5×10^-4 M solution)	solubility (physchem) [mg/mL]
C[C@H]1C[C@@H]2[C@H]([C@@H](O)C[C@@]3(C)[C@H]2CC[C@]3(O)C(=O)COC(=O)CCCCC[S+]([O-])CC(=O)O)[C@@]2(C)C=CC(=O)C=C12 (some centres unmarked) [Example 2, methylprednisolone-21-[6'-(carboxymethylsulfinyl)hexanoate]]	to at least the same extent as was methylprednisolone hemisuccinate	4.6	0.93		
C[C@H]1C[C@@H]2[C@H]([C@@H](O)C[C@@]3(C)[C@H]2CC[C@]3(O)C(=O)COC(=O)CCCCCS(=O)(=O)CC(=O)O)[C@@]2(C)C=CC(=O)C=C12 [Example 1, methylprednisolone, 21-[6'-(carboxymethylsulfonyl)hexanoate]]	to at least the same extent as was methylprednisolone hemisuccinate	4.7	2.0	less than 20%	> 160
